Data reported in patent US20220324876A1, “4-SUBSTITUTED PYRANO[3,4,b]PYRAZINE KAPPA AGONISTS FOR TREATING DRUG DEPENDENCY” (The Rockefeller University, priority 2019, published 2022).
Read-outs that look alike come from different tables or passages of the source.

Assays:
[1] = molecular target: T1, human kappa opioid receptors (Homo sapiens, UniProt P41145); assay: [35S]GTPγS binding, membranes from U2OS cells; format: biochemical; conditions: for Emax: read-out: GTPγS (% efficacy)
T1 construct: expressed in transfected cells; host or cells: U2OS
T1 sequence (P41145 whole entry): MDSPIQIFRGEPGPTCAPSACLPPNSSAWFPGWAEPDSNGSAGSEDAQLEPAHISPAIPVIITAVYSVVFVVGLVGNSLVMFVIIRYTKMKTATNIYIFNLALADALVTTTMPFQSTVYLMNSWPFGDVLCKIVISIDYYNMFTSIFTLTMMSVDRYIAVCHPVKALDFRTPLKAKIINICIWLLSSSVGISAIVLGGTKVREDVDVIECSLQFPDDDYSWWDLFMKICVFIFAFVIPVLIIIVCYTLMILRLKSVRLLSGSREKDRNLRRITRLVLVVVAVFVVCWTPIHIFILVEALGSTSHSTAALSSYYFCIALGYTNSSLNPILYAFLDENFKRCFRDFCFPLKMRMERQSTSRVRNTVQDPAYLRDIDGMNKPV

male mice [2] = assay: Rotarod incoordination (sedation) in mice; format: in vivo
From the text: In the case of rotarod incoordination, kappa agonist effects in this assay reflect kappa-opioid receptor arrestin mediated signaling. This assay is thought to be a sensitive measure of the sedative properties of kappa opioid receptor agonists. Generally, a compound which has reduced efficacy in the coupling of arrestin with the kappa opioid receptor is thought to have a lowered potential for the sedative side effects of kappa opioid receptor ligands Rotarod assays in vivo are employed to confirm this possibility.
Rotarod experiments are conducted with mice using a dedicated rodent rotarod apparatus, with up to five animals tested concurrently (IITC Life Science, Woodland Hills, Calif, USA). Rotarod rotation rate begins at 3 rotations per minute, and ramps to 30 rotations per minute over the course of 300 s, at which time the assay is terminated and animals removed to their home cage. Animals are acclimated to the rotarod on at least two occasions prior to the day of the test. On the day of the test, baseline times for each animal to fall off the rotarod are recorded. Mice are then injected intraperitoneally with vehicle or compound, and rotarod measurements conducted, beginning 0-2 minutes after injection, and then subsequently at select time points thereafter. Animals which fail to remain on the rotarod for at least 150 seconds during baseline testing are removed from the analysis.
(The closure of laboratories during the covid-19 pandemic delayed the carrying out of conditioned place aversion assays and modulation of cocaine self-administration, so that results were not available by the filing date of this application.)

male mice [3] = assay: Serum prolactin release in mice; format: in vivo; conditions: dose-response experiment
[4] = molecular target: kappa opioid receptor (hOPRK1) β-arrestin (Homo sapiens, UniProt P41145); assay: β-arrestin PathHunter assay (U2OS hOPRK1); conditions: for Arrestin efficacy, %: Table E
Sequence of kappa opioid receptor (hOPRK1) β-arrestin (P41145 whole entry): as above

| SMILES | EC50 ([1]; GTPγS EC50 (nM), Table D) | EC50 ([1]; GTPγS potency (nM), Table E) | GTPγS efficacy, % ([1]; Table E) | Emax [1] | EC50 [4] | Arrestin efficacy, % [4] | also measured |
| --- | --- | --- | --- | --- | --- | --- | --- |
| CC(C)(O)CN1CCN(C(=O)Cc2ccc(Cl)c(Cl)c2)[C@H]2[C@H](N3CCCC3)COC[C@@H]21 (single isomer, unassigned) [Example 5A90B] | 5.4 nM | 8.9 nM | 69.3% | 68% | 5.25 µM | 46.5% | sedative effect in rotarod (male mice [2]; 10 mg/kg intraperitoneally): not; sedative effect in rotarod (male mice [2]; 30 mg/kg intraperitoneally): not; sedative effect in rotarod (male mice [2]; 90 mg/kg intraperitoneally): substantial sedative effect; stimulation of prolactin levels (male mice [3]; 30 mg/kg (p<0.05)): statistically significant stimulation; stimulation of prolactin levels (male mice [3]; 90 mg/kg (p<0.005)): statistically significant stimulation |
| CC(C)(O)CN1CCN(C(=O)Cc2ccc(Cl)c(Cl)c2)[C@H]2[C@H]1COC[C@@H]2N1CCCC1 (single isomer, unassigned) [Example 5A90A] | 22 nM | 34.7 nM | 91.0% | 101% | 43.2 µM | 78.1% |  |
| CC(C)(O)C(=O)N1CCN(C(=O)Cc2ccc(Cl)c(Cl)c2)[C@H]2[C@H]1COC[C@@H]2N1CCCC1 [Example 5A96A] | 17 nM | 32.8 nM | 77.0% | 64% | 3.76 µM | 53.0% | sedative effect in rotarod (male mice [2]; up to 90 mg/kg intraperitoneally): no statistically significant sedative effect |
| O=C(Cc1ccc(Cl)c(Cl)c1)N1CCN(Cc2cccnc2)[C@@H]2COC[C@H](N3CCCC3)[C@H]21 (racemic) [rac-5A81] | 7.4 nM |  |  | 95% |  |  |  |
| O=C(Cc1ccc(Cl)c(Cl)c1)N1CCN(C(=O)CO)[C@H]2COC[C@@H](N3CCCC3)[C@@H]21 (single isomer, unassigned) [Example 5A95B] | 202 nM |  |  | 78% |  |  |  |
| CC(C)(O)C(=O)N1CCN(C(=O)Cc2ccc(Cl)c(Cl)c2)[C@H]2[C@H](N3CCCC3)COC[C@@H]21 [Example 5A96B] | 64 nM | 71.4 nM | 123.5% | 113% | 24.8 µM | 60.7% |  |
| Cn1cc(CN2CCN(C(=O)Cc3ccc(Cl)c(Cl)c3)[C@H]3[C@H]2COC[C@@H]3N2CCCC2)cn1 (racemic) [rac-5A79] |  |  |  | 82% |  |  | EC50 [1]: 107 nM |
| O=C(Cc1ccc(Cl)c(Cl)c1)N1CCN(CCO)[C@H]2COC[C@@H](N3CCCC3)[C@@H]21 (single isomer, unassigned) [Example 5A74B] | 12 nM |  |  | 95% |  |  |  |
| O=C(Cc1ccc(Cl)c(Cl)c1)N1CCN(Cc2cccc(F)c2)[C@H]2COC[C@@H](N3CCCC3)[C@@H]21 (single isomer, unassigned) [Example 5A145B] | 9.7 nM |  |  | 91% |  |  |  |
| O=C(Cc1ccc(Cl)c(Cl)c1)N1CCN(Cc2cn[nH]c2)[C@@H]2COC[C@H](N3CCCC3)[C@H]21 (racemic) [rac-5A107] | 3.9 nM |  |  | 112% |  |  |  |
